The test system of one assay is HIV-1 antibodies. The assay can be described thus: ELISA, single peptides identifying HIV-1 positive sera. It counts as binding, human. How it is done: According to this test a peptide or a peptide mixture of the present invention is adsorbed onto the wells of a microtiter plate. The wells are then treated with sera to be tested. After washing, anti-human IgG labeled with peroxidase is added to the wells. The determination of the peroxidase is performed with a corresponding substrate, e.g. with o-phenylene diamine. Also in this procedure the peroxidase can be exchanged by another label, e.g. by a radioactive or fluorescence label.
(§1) Each well of the microtiter plate is saturated with 100 μl of a solution containing a peptide or mixture of peptides (5 μg/ml) and left overnight. The wells are emptied and washed twice with a washing buffer (Tris, 0.043M; NaCl, 0.5M;thimerosal, 0.01% w/v; Tween 20, 0.05% v/v; pH 7.4). The wells are then saturated with 0.35 ml of washing buffer for 1 hr. at 37° C. and washed once with the same buffer. Serum samples to be analyzed are diluted with specimen buffer (washing buffer plus casein, 0.05% w/v). The wells are rinsed with washing buffer prior to the addition of the diluted serum sample (0.1 ml). These are left to incubate for 1 hr. at room temperature. The wells are then emptied, washed twice rapidly and then once for two minutes with washing buffer. […] The wells are then emptied and washed twice rapidly with washing buffer and then five times in which the buffer was in contact with the well 2 minutes per washing.
(§2) The substrate solution (3,3', 5,5'-tetramethylbenzidine, 8 mg per ml of DMSO) is diluted with 100 volumes 0.1M citrate-acetate buffer, pH 5.6 containing 0.1% v/v of 30% H2 O2 and added to each well (0.1 ml per well). After 10 minutes the contents of each well is treated with 0.1 ml 2N H2 SO4 and the optical density read at 450 nm. All determinations are done in duplicate.
Background: ELISA stands for enzyme-linked immunosorbent assay.

In another assay the test system is HIV-1-antibodies. The assay can be described thus: ELISA, cyclic versus non-cyclic peptides, sera at various dilutions. Format: binding, human. The protocol: TABLE 5 is provided to illustrate the sensitivity of cyclic versus noncyclic peptides in the ELISA test by comparing the results of some sera at various dilutions.
Plates used in this experiment were coated with solutions of peptides at 10 μg/ml. (Experimental results of TABLE 5 were obtained with plates coated with peptides at 0,5 μg/ml). Four different HIV-1 positive serum samples were serially diluted and their titers determined. The titer was defined as the serum dilution giving an absorbancy reading of 1:0 in the conditions of the ELISA procedure already described.
as §1, §2

Positions of bridges follow the written chain, without caps; N, C: chain ends. Residues, ends and D or L forms follow the SMILES beside them. No end group written: not given here.

Take `CC[C@H](C)[C@@H]1NC(=O)[C@H](CC(C)C)NC(=O)[C@H](CCCCN)NC(=O)CNC(=O)[C@H](CO)NC(=O)[C@@H](NC(=O)CN)CSSC[C@@H](C(=O)N[C@H](C(=O)N[C@H](C(=O)N[C@@H](C)C(=O)N[C@H](C(=O)N2CCC[C@H]2C(=O)N[C@@H](Cc2c[nH]c3ccccc23)C(=O)N[C@@H](CC(N)=O)C(=O)N[C@@H](C)C(=O)N[C@@H](CO)C(=O)O)C(C)C)[C@@H](C)O)[C@@H](C)O)NC1=O` [Peptide 80] (H-GCSGKLICTTAVPWNAS-OH; disulfide 2-8): the “% Positive Sera correctly Identified” value with HIV-1 antibodies (ELISA, single peptide) came out at 100%. For the same compound, the ELISA optical density in the assay on HIV-1-antibodies (serum 87V103, dilution 1/50) is 0.003 optical density units; in the assay with HIV-1-antibodies (serum 1428, dilution 1/50), 1.047 optical density units; with HIV-1-antibodies (serum M-5, dilution 1/50), 2.104 optical density units; in the assay on HIV-1-antibodies (serum M-5, dilution 1/100), 1.881 optical density units; with HIV-1-antibodies (serum M-5, dilution 1/200) it was 1.599 optical density units; in the assay with HIV-1-antibodies (serum M-5, dilution 1/800), 0.767 optical density units. Further, the ELISA optical density in the assay with HIV-1-antibodies (serum M-7, dilution 1/50) amounted to 0.191 optical density units; in the assay with HIV-1-antibodies (serum M-7, dilution 1/100), 0.067 optical density units; with HIV-1-antibodies (serum M-7, dilution 1/200), 0.019 optical density units; with HIV-1-antibodies (serum M-7, dilution 1/400) it was 0.010 optical density units; in the assay with HIV-1-antibodies (serum M-7, dilution 1/800), 0.005 optical density units; with HIV-1-antibodies (serum M-8, dilution 1/50), 1.026 optical density units. Further, the ELISA optical density in the assay on HIV-1-antibodies (serum M-8, dilution 1/100) is listed as 0.737 optical density units; in the assay with HIV-1-antibodies (serum M-8, dilution 1/200), 0.520 optical density units; in the assay on HIV-1-antibodies (serum M-8, dilution 1/400), 0.340 optical density units; with HIV-1-antibodies (serum M-8, dilution 1/800), 0.159 optical density units; in the assay with HIV-1-antibodies (serum M-16, dilution 1/50) it was 1.601 optical density units; in the assay with HIV-1-antibodies (serum M-16, dilution 1/100), 1.300 optical density units. The ELISA optical density with HIV-1-antibodies (serum M-16, dilution 1/200) came out at 0.903 optical density units; with HIV-1-antibodies (serum M-16, dilution 1/400) it was 0.583 optical density units; with HIV-1-antibodies (serum M-16, dilution 1/800), 0.329 optical density units.

Regarding `CC[C@H](C)[C@H](NC(=O)CNC(=O)[C@H](CC(C)C)NC(=O)[C@H](CC(C)C)NC(=O)[C@H](CCC(N)=O)NC(=O)[C@H](CCC(N)=O)NC(=O)[C@H](CC(=O)O)NC(=O)[C@H](CCCCN)NC(=O)[C@H](CC(C)C)NC(=O)[C@H](Cc1ccc(O)cc1)NC(=O)[C@H](CCCNC(=N)N)NC(=O)[C@H](CCC(=O)O)NC(=O)[C@@H](N)C(C)C)C(=O)N[C@@H](Cc1c[nH]c2ccccc12)C(=O)NCC(=O)N[C@H]1CSSC[C@@H](C(=O)N[C@H](C(=O)N[C@H](C(=O)N[C@@H](C)C(=O)N[C@H](C(=O)N2CCC[C@H]2C(=O)N[C@@H](Cc2c[nH]c3ccccc23)C(=O)N[C@@H](CC(N)=O)C(=O)N[C@@H](C)C(=O)N[C@@H](CO)C(=O)O)C(C)C)[C@@H](C)O)[C@@H](C)O)NC(=O)[C@H]([C@@H](C)CC)NC(=O)[C@H](CC(C)C)NC(=O)[C@H](CCCCN)NC(=O)CNC(=O)[C@H](CO)NC1=O` [Peptide 88] (H-VERYLKDQQLLGIWGCSGKLICTTAVPWNAS-OH; disulfide 16-22), in the assay with HIV-1 antibodies (ELISA, single peptide), the “% Positive Sera correctly Identified” value was determined as 100%.

In the case of `CC[C@H](C)[C@H](NC(=O)[C@H](CCC(N)=O)NC(=O)[C@H](CCC(=O)O)NC(=O)[C@H](CC(C)C)NC(=O)[C@H](CO)NC(=O)[C@H](CCCCN)NC(=O)[C@H](CC(N)=O)NC(=O)[C@H](CO)NC(=O)[C@H](Cc1c[nH]c2ccccc12)NC(=O)[C@H](CO)NC(=O)[C@H](C)NC(=O)[C@H](CC(N)=O)NC(=O)[C@H](Cc1c[nH]c2ccccc12)NC(=O)[C@@H]1CCCN1C(=O)[C@@H](NC(=O)[C@H](C)NC(=O)[C@@H](NC(=O)[C@@H](NC(=O)[C@@H]1CSSC[C@H](NC(=O)CN)C(=O)N[C@@H](CO)C(=O)NCC(=O)N[C@@H](CCCCN)C(=O)N[C@@H](CC(C)C)C(=O)N[C@@H]([C@@H](C)CC)C(=O)N1)[C@@H](C)O)[C@@H](C)O)C(C)C)C(=O)O` [Peptide 96] (H-GCSGKLICTTAVPWNASWSNKSLEQI-OH; disulfide 2-8), in the assay with HIV-1 antibodies (ELISA, single peptide), the “% Positive Sera correctly Identified” value is listed as 100%.

For the compound CGKIEPLGVAPTKAKRRVVQREKR [Peptide 71], the “% Positive Sera correctly Identified” value in the assay with HIV-1 antibodies (ELISA, single peptide) came out at 83%.

Consider “CGNNPPIPVGE [Peptide 41, NH2 -CGNNPPIPVGE-COOH]”, for which the “% Positive Sera correctly Identified” value in the assay on HIV-1 antibodies (peptide Free) worked out at 63%; in the assay on HIV-1 antibodies (peptide coupled), 73%.

“CGRAEQASQEVKN [Peptide 46, NH2 -CGRAEQASQEVKN-COOH]”: the “% Positive Sera correctly Identified” value was found to be 0% with HIV-1 antibodies (peptide Free) and 93% in the assay on HIV-1 antibodies (peptide coupled).

In the case of GHACVPTDPNPQEVVL [Peptide 14], in the assay with HIV-1 antibodies (ELISA, single peptide), the “% Positive Sera correctly Identified” value amounted to 50%.

As to “NH2 -CGLGIWGCSGKLICTTAVPWNASWSNKSLEQI-COOH [Peptide 98]”, the “% Positive Sera correctly Identified” value in the assay on HIV-1 antibodies (ELISA, single peptide) was 100%.

In the case of “NH2 -CGVERYLKQQLLGIWGCSGKLICTTAVPWNASWSNKSLEQI-COOH [Peptide 99]”, the “% Positive Sera correctly Identified” value in the assay with HIV-1 antibodies (ELISA, single peptide) is recorded as 100%.

With “NH2 -CGYLKDQQLLGIWGCSGKLICTTAVPWNASWSNKSLEQI-COOH [Peptide 97]”, the “% Positive Sera correctly Identified” value with HIV-1 antibodies (ELISA, single peptide) is listed as 100%.

For “NH2 -FAFAFGCSGKLICTTAVPWNASWSNKSLEQI-COOH [Peptide 91]”, the “% Positive Sera correctly Identified” value in the assay on HIV-1 antibodies (ELISA, single peptide) came out at 94%.

Consider “NH2 -GCSGKLICTTAVPWNAS-COOH (H-GCSGKLICTTAVPWNAS-OH; cysteine pairing not given here) [Peptide 77, linear peptide, gp41 604-620]”, for which the “% Positive Sera correctly Identified” value in the assay on HIV-1 antibodies (ELISA, single peptide) amounted to 100%. Further, the ELISA optical density with HIV-1-antibodies (serum 87V103, dilution 1/50) was found to be 0.000 optical density units; in the assay on HIV-1-antibodies (serum 1428, dilution 1/50), 0.926 optical density units; in the assay with HIV-1-antibodies (serum M-5, dilution 1/50), 1.719 optical density units; in the assay with HIV-1-antibodies (serum M-5, dilution 1/100) it was 1.459 optical density units; in the assay on HIV-1-antibodies (serum M-5, dilution 1/200) it was 1.248 optical density units; with HIV-1-antibodies (serum M-5, dilution 1/400) it was 0.959 optical density units. Also, the ELISA optical density with HIV-1-antibodies (serum M-5, dilution 1/800) is given as 0.057 optical density units; with HIV-1-antibodies (serum M-7, dilution 1/50), 0.142 optical density units; in the assay with HIV-1-antibodies (serum M-7, dilution 1/100) it was 0.025 optical density units; with HIV-1-antibodies (serum M-7, dilution 1/200), 0.007 optical density units; with HIV-1-antibodies (serum M-7, dilution 1/400), 0.001 optical density units; in the assay with HIV-1-antibodies (serum M-7, dilution 1/800), 0.000 optical density units. The ELISA optical density is reported as 0.795 optical density units in the assay with HIV-1-antibodies (serum M-8, dilution 1/50); 0.507 optical density units in the assay on HIV-1-antibodies (serum M-8, dilution 1/100); 0.376 optical density units with HIV-1-antibodies (serum M-8, dilution 1/200); 0.209 optical density units with HIV-1-antibodies (serum M-8, dilution 1/400); 0.062 optical density units in the assay with HIV-1-antibodies (serum M-8, dilution 1/800); 1.219 optical density units in the assay with HIV-1-antibodies (serum M-16, dilution 1/50). Further, the ELISA optical density in the assay with HIV-1-antibodies (serum M-16, dilution 1/100) stood at 0.962 optical density units; in the assay with HIV-1-antibodies (serum M-16, dilution 1/200), 0.613 optical density units; in the assay with HIV-1-antibodies (serum M-16, dilution 1/400), 0.301 optical density units; with HIV-1-antibodies (serum M-16, dilution 1/800) it was 0.205 optical density units.

Regarding “NH2 -GCSGKLICTTAVPWNASWSWSNKSLEQI-COOH [Peptide 95]”, the “% Positive Sera correctly Identified” value in the assay with HIV-1 antibodies (ELISA, single peptide) is 100%.

Turning to “NH2 -IWGCSGKLICTTAVPWNAS-COOH (H-IWGCSGKLICTTAVPWNAS-OH; cysteine pairing not given here) [Peptide 78, linear peptide, gp41 602-620]”, in the assay on HIV-1 antibodies (ELISA, single peptide), the “% Positive Sera correctly Identified” value was found to be 100%.

On to “NH2 -SGKLICTTAVPWNASWSNKSLEQGC-COOH [Peptide 56]”, for which the “% Positive Sera correctly Identified” value in the assay with HIV-1 antibodies (ELISA, single peptide) was 100%.

Regarding “NH2 -VERYLKDQQLLGIWGCSGKLICTTAVPWNAS-COOH (H-VERYLKDQQLLGIWGCSGKLICTTAVPWNAS-OH; cysteine pairing not given here) [Peptide 81, linear peptide, gp41 590-620]”, the “% Positive Sera correctly Identified” value with HIV-1 antibodies (ELISA, single peptide) is given as 100%.

In the case of TTAVPWNASWSNKSLEQGC [Peptide 42], the “% Positive Sera correctly Identified” value in the assay with HIV-1 antibodies (ELISA, single peptide) was determined as 5%.

The values above are taken from patent publication US6214537A, “Synthetic peptides and mixtures thereof for detecting HIV antibodies” (Biochem Immunosystems, Inc., priority 1988, dated 2001).
